Data published in patent US12297434B1, “Biomarker for predicting drug resistance of bruton's tyrosine kinase inhibitors and application thereof” (Beijing Friendship Hospital, Capital Medical University, priority 2024, dated 2025).

Legend:
Assay type in all cases: cell-based, Human
SUDHL2 cells = test: CCK8 cell viability, zebutinib on SUDHL2; conditions: parental ABC-DLBCL cell line SUDHL2, CCK8 method; read-out: half maximal inhibitory concentration (IC50)
Source text: (§1) Human ABC-DLBCL cell lines (SUDHL2, U2932 and OCI-LY10) are purchased from American Type Culture Collection (ATCC) cell bank. The BTK inhibitor-resistant ABC-DLBCL-R cell line is constructed according to the drug concentration gradient increment method, and the BTK inhibitor used in the present disclosure is zebutinib. […] All the patients were diagnosed according to the 2016 revision of the WHO classification of lymphoid neoplasms. Before the study, written informed consent was obtained from each patient and healthy volunteer.
(§2) The drug concentration gradient is used to induce zebutinib resistance to BTK inhibitor in ABC-DLBCL cell lines (SUDHL2, U2932 and OCI-LY10). Tumor cells in the logarithmic growth phase are taken, and zebutinib at a starting concentration of 2 micromoles per liter (μmol/L) (about 1/10 of the IC50 of the parental cell line) is added to act for 24 hours (h). […]
(§3) Cell activity is measured using a cell counting kit-8 (CCK-8, Dojindo, Japan). […] The absorbance at 450 nm is measured by ELX808 microplate spectrophotometer (BioTekInstruments, Winooski, VT, USA). Colony formation experiment: cells are inoculated into a 6-well plate with 500 cells per well, three copies in one group, and cultured for 10-14 days to form colonies, followed by […] in formaldehyde and staining with crystal violet, and the visible colonies are counted. […]

[1] = test system: SUDHL2-R cells (zebutinib-resistant ABC-DLBCL cell line); test: CCK8 cell viability, zebutinib on SUDHL2-R
Source text: as §1, §2, §3

U2932 cells = test: CCK8 cell viability, zebutinib on U2932; conditions: parental ABC-DLBCL cell line U2932, CCK8 method; read-out: half maximal inhibitory concentration (IC50)
Source text: as §1, §2, §3

[2] = test system: U2932-R cells (zebutinib-resistant ABC-DLBCL cell line); test: CCK8 cell viability, zebutinib on U2932-R
Source text: as §1, §2, §3

OCI-LY10 cells = test: CCK8 cell viability, zebutinib on OCI-LY10; conditions: parental ABC-DLBCL cell line OCI-LY10, CCK8 method; read-out: half maximal inhibitory concentration (IC50)
Source text: as §1, §2, §3

[3] = test system: OCI-LY10-R cells (zebutinib-resistant ABC-DLBCL cell line); test: CCK8 cell viability, zebutinib on OCI-LY10-R
Source text: as §1, §2, §3

IC50 ([1]; drug-resistant cell line SUDHL2-R, CCK8 method, read-out: half maximal inhibitory concentration (IC50)): 90.3 µM
IC50 ([3]; drug-resistant cell line OCI-LY10-R, CCK8 method, read-out: half maximal inhibitory concentration (IC50)): 118 µM
SMILES: C=CC(=O)N1CCC([C@@H]2CCNc3c(C(N)=O)c(-c4ccc(Oc5ccccc5)cc4)nn32)CC1 [zebutinib]
IC50 (SUDHL2 cells): 17.1 µM
resistance index (RI) ([1]; RI=IC50 of drug-resistant cell line/IC50 of parental cell line, SUDHL2-R vs SUDHL2): 5.28
IC50 (U2932 cells): 28 µM
resistance index (RI) ([2]; RI=IC50 of drug-resistant cell line/IC50 of parental cell line, U2932-R vs U2932): 5.14
IC50 ([2]; drug-resistant cell line U2932-R, CCK8 method, read-out: half maximal inhibitory concentration (IC50)): 144 µM
IC50 (OCI-LY10 cells): 22.5 µM
resistance index (RI) ([3]; RI=IC50 of drug-resistant cell line/IC50 of parental cell line, OCI-LY10-R vs OCI-LY10): 5.23
